EP3991725B1, “NOVEL ENTERO-ANTISEPTIC FOR THE TREATMENT OF GASTROINTENSTINAL INFECTIONS IN HUMANS” (Ninkov, Dusan, priority 2020, dated 2022)

How the values were obtained:
[1] = system: bacteria; assay: In vitro studies of bactericide effect; type: cell-based; details: compared with Thymol and Carvacrol
Text: Their physiological activity is well known. […] The phenol groups of both Thymol and Carvacrol are very aggressive to pathogens: bacteria, fungi etc. These groups are needed for bioactivity of our product. What has been done was making the phenol group less reactive by reacting them with carboxylic and amino group of glycine. The product should be administered p.o. (per os). The novelty idea was to hydrolyze a part of the new molecule in the stomach by hydrochloric acid. Carvacrol and an ester of Glycine and Thymol will be slowly hydrolyzed into Thymol and Glycine. […] The subject of this invention is to produce a potent entero-antiseptic for the treatment gastrointestinal infections in humans.

[2] = system: humans; assay: Clinical pilot study for side effects of the compound tablets; type: in vivo; details: 60 humans; 250 mg / 30 kg of the body weight every 12 hours for seven (7) days
Protocol: The reason for this testing was to check if the compound tablets, after a longer period of use, can cause any eventual side effects.
The test results were generated and monitored to obtain the relevant information and facts. In this study, the general monitored parameters were pulse, breathing, ECG (Electrocardiography), any discomfort, adverse events and/or allergy monitoring. These parameters were measured before the treatment with the compound and 15 minutes after its intake. The compound was ingested on the therapeutic days in each patient at 8.00 AM and 8.00 PM CET (paragraph [0026] and paragraph [0027]). After The compound had been consumed, the physician made observations for 30 min. Feeling of the patients during and after the intake of the compound will also be recorded for each participant.
As part of the biochemical analysis of patients' blood, the blood sample of each patient was checked for biochemical parameters. Blood samples were taken from each patient before the beginning of the test, on the 4th day from the tests beginning, and on the 8th day form the tests beginning. The last blood samples have to be checked 12 hours from the last intake of the compound. The biochemical parameters that were measured in blood samples include: • 1. Liver status • 2. C Reactive protein • 3. Kidney Status
The dose was: 250 mg of the compound / 30 kg of the body weight every 12 hours for seven (7) days (paragraph [0026] and paragraph [0027]).
The clinical study started on November 5th, 2019, and was completed on November 29th, 2019.

[3] = system: Salmonella typhimurium DT104; assay: Comparative in vitro examination of selected pathogens, zone diameter; type: cell-based; details: (Müller)Hinton-Agar; amount used: The novel compound 0.05 mL; Cephalosporin 0.1 mL; Ampicillin 0.2 mL
[4] = system: Listeria; assay: as above; type: cell-based; details: (Müller)Hinton-Agar; amount used: The novel compound 0.05 mL; Cephalosporin 0.1 mL; Ampicillin 0.2 mL
[5] = system: Salmonella; assay: as above; type: cell-based; details: (Müller)Hinton-Agar; amount used: The novel compound 0.05 mL; Cephalosporin 0.1 mL; Ampicillin 0.2 mL
[6] = system: Streptococcus pyogenes; assay: as above; type: cell-based; details: (Müller)Hinton-Agar; amount used: The novel compound 0.05 mL; Cephalosporin 0.1 mL; Ampicillin 0.2 mL
[7] = system: Streptococcus pneumonia; assay: as above; type: cell-based; details: (Müller)Hinton-Agar; amount used: The novel compound 0.05 mL; Cephalosporin 0.1 mL; Ampicillin 0.2 mL
[8] = system: Streptococcus uberis; assay: as above; type: cell-based; details: (Müller)Hinton-Agar; amount used: The novel compound 0.05 mL; Cephalosporin 0.1 mL; Ampicillin 0.2 mL
[9] = system: Staphylococcus aureus; assay: as above; type: cell-based; details: (Müller)Hinton-Agar; amount used: The novel compound 0.05 mL; Cephalosporin 0.1 mL; Ampicillin 0.2 mL
[10] = system: Listeria monocytogenes; assay: as above; type: cell-based; details: (Müller)Hinton-Agar; amount used: The novel compound 0.05 mL; Cephalosporin 0.1 mL; Ampicillin 0.2 mL
[11] = system: mice; assay: Acute toxicity LD50, oral (p.o.), mice; details: oral dose 2,000 mg/kg
[12] = system: Salmonella strain which requires histidine; assay: Ames test (mutagenic and carcinogenic effect); type: cell-based
Text: (The subject of the testing was to determine the mutagenic and carcinogenic effect of the compound in tablet form). The test has been done by the Ames test. This test which is a widely and often used method that use pathogens in most cases bacteria's in order to test whether a given chemical, compound and/or medicine can cause any damage to the DNA of the test organism. This method is fast to conduct and easy to follow to check mutagenic or carcinogenic effect of the tested compound. In the lab dish with a the specially selected Salmonella strain which requires histidine, was added to a rat liver extract. The test has been done using the control-experimental method. In the dish volume of the 20 mL of liquid considered to be a control one, had no the compound in it. Into the dish we consider to be experimental one with also a volume of 20 mL, we added 2 mL of the compound, partly diluted into a glucose injectable solution. The mutagenic test results were negative in both lab dishes - control and experimental plates. The results were identical with no signs of the mutations.

[13] = system: Campylobacter; assay: Comparative in vitro examination of selected pathogens, zone diameter; type: cell-based; details: (Müller)Hinton-Agar; amount used: The novel compound 0.05 mL; Cephalosporin 0.1 mL; Ampicillin 0.2 mL
[14] = system: rats; assay: Acute toxicity LD50, oral (p.o.), rats; details: oral dose 2,500 mg/kg
[15] = system: Vibrio; assay: Comparative in vitro examination of selected pathogens, zone diameter; type: cell-based; details: (Müller)Hinton-Agar; amount used: The novel compound 0.05 mL; Cephalosporin 0.1 mL; Ampicillin 0.2 mL
[16] = system: Escherichia coli 0157H5; assay: as above; type: cell-based; details: (Müller)Hinton-Agar; amount used: The novel compound 0.05 mL; Cephalosporin 0.1 mL; Ampicillin 0.2 mL
[17] = system: Yersinia; type: cell-based; details: (Müller)Hinton-Agar; amount used: The novel compound 0.05 mL; Cephalosporin 0.1 mL; Ampicillin 0.2 mL
[18] = system: Shigella; assay: Comparative in vitro examination of selected pathogens, zone diameter; type: cell-based; details: (Müller)Hinton-Agar; amount used: The novel compound 0.05 mL; Cephalosporin 0.1 mL; Ampicillin 0.2 mL
[19] = system: rats; assay: Acute toxicity LD50, parenteral - intraperitoneal (i.p.), rats; details: i.p. dose 2,500 mg/kg
[20] = system: E. coli; assay: Comparative in vitro examination of selected pathogens, zone diameter; type: cell-based; details: (Müller)Hinton-Agar; amount used: The novel compound 0.05 mL; Cephalosporin 0.1 mL; Ampicillin 0.2 mL
[21] = system: mice; assay: Acute toxicity LD50, parenteral - intraperitoneal (i.p.), mice; details: mouse, in vivo
[22] = system: mammalian cells, mitotic division; assay: Pilot test of effect on mitotic cell division; type: cell-based; details: the compound in tablet form
Text: In the pilot test at the same Institute, the effect of the compound on the mammalian cells, mitotic division has also been tested. It has been investigated if the compound in tablet form will have any negative - suppressive effect on the mitotic cells division. […] It is a positive sign that the compound in tablet form might be used for on pregnant mammals, without danger of the teratogenic effect on the fetus in the wombs, by the pregnant mammals.

[23] = system: rats; details: oral (p.o.), Carvacrol 99,5% concentration, reference value; cited from earlier work
[24] = phenol group of Carvacrol; cited from earlier work

2-(2-isopropyl-5-methylphenoxy)-2-oxoethan-1-aminium 2-isopropyl-5-methylphenolate [The novel compound]
bactericide effect [1]: more effective and faster bactericide effect than existing Thymol and Carvacrol | C Reactive Protein (CRP) measurements [2]: no inflammation was developed | Electrocardiography measurements [2]: regular without any pathological and irregular oscillations | kidney functions (urine and blood parameters) [2]: No irregular parameters were reported | liver function biochemical analysis from blood samples [2]: No irregular parameters were reported | pulse frequency and blood pressure [2]: not significantly altered | respiratory function [2]: not disturbed | symptoms of allergy [2]: no symptoms of allergy | tolerance to the compound upon the prescribed dosage [2]: showed tolerance | R (evaluation of the results by zone diameter) [3]: E S | zone diameter [3]: 30 mm | R (evaluation of the results by zone diameter) [4]: E S | zone diameter [4]: 32 mm | R (evaluation of the results by zone diameter) [5]: E S | zone diameter [5]: 34 mm | R (evaluation of the results by zone diameter) [6]: E S | zone diameter [6]: 34 mm | R (evaluation of the results by zone diameter) [7]: E S | zone diameter [7]: 36 mm | R (evaluation of the results by zone diameter) [8]: E S | zone diameter [8]: 37 mm | R (evaluation of the results by zone diameter) [9]: E S | zone diameter [9]: 32 mm | R (evaluation of the results by zone diameter) [10]: E S | zone diameter [10]: 38 mm | mice out of a hundred (100) that changed their behavior and demonstrated light discomfort [11]: 21 | mutagenic test results ([12]; Ames test, rat liver extract, 2 mL of the compound, partly diluted into a glucose injectable solution, in 20 mL dish, preliminary result): negative | carcinogenic effect ([12]; suggested from the negative Ames test result, the compound in tablet form): no carcinogenic effect | R (evaluation of the results by zone diameter) [13]: E S | zone diameter [13]: 35 mm | rats out of a hundred (100) that changed their behavior and demonstrated light discomfort [14]: 37 | R (evaluation of the results by zone diameter) [15]: E S | zone diameter [15]: 33 mm | R (evaluation of the results by zone diameter) [16]: E S | zone diameter [16]: 29 mm | R (evaluation of the results by zone diameter) [17]: E S | zone diameter [17]: 30 mm | R (evaluation of the results by zone diameter) [18]: E S | zone diameter [18]: 31 mm | rats out of a hundred (100) that changed their behavior and demonstrated discomfort [19]: 35 | R (evaluation of the results by zone diameter) [20]: E S | zone diameter [20]: 32 mm | mice out of a hundred (100) that changed their behavior and demonstrated discomfort [21]: 27 | time after which discomfort symptoms disappeared [21]: 3 to 5 min | negative - suppressive effect on the mitotic cells division [22]: no negative effects

CC1(C)S[C@@H]2[C@H](NC(=O)[C@H](N)c3ccccc3)C(=O)N2[C@H]1C(=O)O [Ampicillin]
R (evaluation of the results by zone diameter) [3]: M S | zone diameter [3]: 6 mm | R (evaluation of the results by zone diameter) [4]: R (0mm - 4mm: resistant: R) | zone diameter [4]: 2 mm | R (evaluation of the results by zone diameter) [5]: M S | zone diameter [5]: 8 mm | R (evaluation of the results by zone diameter) [6]: R (0mm - 4mm: resistant: R) | zone diameter [6]: 3 mm | R (evaluation of the results by zone diameter) [7]: R (0mm - 4mm: resistant: R) | zone diameter [7]: 0 mm | R (evaluation of the results by zone diameter) [8]: R (0mm - 4mm: resistant: R) | zone diameter [8]: 0 mm | R (evaluation of the results by zone diameter) [9]: R (0mm - 4mm: resistant: R) | zone diameter [9]: 0 mm | R (evaluation of the results by zone diameter) [10]: M S | zone diameter [10]: 5 mm | R (evaluation of the results by zone diameter) [13]: R (0mm - 4mm: resistant: R) | zone diameter [13]: 0 mm | R (evaluation of the results by zone diameter) [15]: R (0mm - 4mm: resistant: R) | zone diameter [15]: 4 mm | R (evaluation of the results by zone diameter) [16]: M S | zone diameter [16]: 7 mm | R (evaluation of the results by zone diameter) [17]: R (0mm - 4mm: resistant: R) | zone diameter [17]: 1 mm | R (evaluation of the results by zone diameter) [18]: M S | zone diameter [18]: 6 mm | R (evaluation of the results by zone diameter) [20]: R (0mm - 4mm: resistant: R) | zone diameter [20]: 2 mm

Cc1ccc(C(C)C)cc1O [Carvacrol]
LD50 [23]: 810 mg/kg | pKa [24]: 10.4
